Reference: US10604509B2, “Nrf2 regulators” (GlaxoSmithKline Intellectual Property Development Limited, priority 2015, dated 2020)
Counter-ions that a name gives are not always drawn. Like-named read-outs stand apart in the source and are kept apart here.

Test system: NQO1 specific enzyme activity in BEAS-2B cells
Assay: BEAS-2B NQO1 MTT assay
Format: cell-based
Conditions: BEAS-2B cells, 48 hours with compound, MTT readout, read-out: EC50 of NQO1 specific activity induction
Excerpt: NAD(P)H:quinone oxidoreductase 1 (NQO1), also called DT diaphorase, is a homodimeric FAD-containing enzyme that catalyzes obligatory NAD(P)H-dependent two-electron reductions of quinones and protects cells against the toxic and neoplastic effects of free radicals and reactive oxygen species arising from one-electron reductions. The transcription of NQO1 is finely regulated by NRF2, and thus NQO1 activity is a good marker for NRF2 activation. On day one, frozen BEAS-2B cells (ATCC) are thawed in a water bath, counted, and re-suspended at a concentration of 250,000 cells/mL. Fifty microliters of cells are plated in 384 well black clear-bottomed plates. Plates are incubated at 37° C., 5% CO2 overnight. On day two, plates are centrifuged and 50 nL of compound or controls are added to the cells. Plates are then incubated at 37° C., 5% CO2 for 48 hours. On day four, medium is aspirated from the plate and crude cell lysates are made by adding 13 uL of 1× Cell Signaling Technologies lysis buffer with 1 Complete, Mini, EDTA-free Protease Inhibitor Tablet (Roche) for each 10 mL of lysis buffer. After lysis plates are incubated for 20 minutes at room temperature. Two microliters of lysate are removed for use in Cell Titer Glo assay (Promega) and MTT cocktail is prepared (Prochaska et. al. 1998) for measurement of NQO1 activity. Fifty microliters of MTT cocktail is added to each well, plate is centrifuged, and analyzed on an Envision plate reader (Perkin Elmer) using Absorbance 570 nm label for 30 minutes. Product formation is measured kinetically and the EC50 of NQO1 specific activity induction is calculated by plotting the change in absorbance (Delta OD/min) versus the log of compound concentration followed by 3-parameter fitting.

Work on `CCn1cc(CCC(c2ccc(C)c(CN3Cc4cnccc4OC(C)(C)C3)c2)C(C)C(=O)O)nn1` (single isomer, unassigned) [Example 228, 3-(3-((2,2-Dimethyl-2,3-dihydropyrido[3,4-f][1,4]oxazepin-4(5H)-yl)methyl)-4-methylphenyl)-5-(1-ethyl-1H-1,2,3-triazol-4-yl)-2-methylpentanoic acid] yielded an EC50 of 100 to 1000 nM.

`Cc1ccc(C(c2ccc3c(nnn3C)c2C)C(C)(C)C(=O)O)cc1Cn1ccnc1CN1CCCCC1` (centres unmarked) [Example 123, 3-(1,4-Dimethyl-1H-benzo[d][1,2,3]triazol-5-yl)-2,2-dimethyl-3-(4-methyl-3-((2-(piperidin-1-ylmethyl)-1H-imidazol-1-yl)methyl)phenyl)propanoate, Sodium salt] gave an EC50 (Homo sapiens, BEAS-2B, 48 h) of 10 to 100 nM.

`Cc1ccc(C(c2ccc3c(nnn3C)c2C)C(C)(C)C(=O)O)cc1CN1CCCn2cncc2C1` (centres unmarked) [Example 37, 3-(3-((6,7-Dihydro-5H-imidazo[1,5-a][1,4]diazepin-8(9H)-yl)methyl)-4-methylphenyl)-3-(1,4-dimethyl-1H-benzo[d][1,2,3]triazol-5-yl)-2,2-dimethylpropanoate, Sodium salt] was tested, and the EC50 (Homo sapiens, BEAS-2B, 48 h) was 1000 to 10000 nM.

With `Cc1ccc(C(CC(=O)O)c2ccc3c(nnn3C)c2C)cc1Cn1ccnc1CC1CCCCCC1` (centres unmarked) [Example 146, 3-(3-((2-(Cycloheptylmethyl)-1H-imidazol-1-yl)methyl)-4-methylphenyl)-3-(1,4-dimethyl-1H-benzo[d][1,2,3]triazol-5-yl)propanoic acid, formic acid salt] the EC50 (Homo sapiens, BEAS-2B, 48 h) was 10 to 100 nM.

Work on `CCC1Cc2ccccc2CN(Cc2cc(C(CC(=O)O)c3ccc4c(nnn4C)c3C)ccc2C)C1` (centres unmarked) [Example 106, 3-(1,4-Dimethyl-1H-benzo[d][1,2,3]triazol-5-yl)-3-(3-((4-ethyl-4,5-dihydro-1H-benzo[c]azepin-2(3H)-yl)methyl)-4-methylphenyl)propanoic Acid] yielded an EC50 (Homo sapiens, BEAS-2B, 48 h) of 100 to 1000 nM.

For `COc1ccc2c(c1)CN(Cc1cc([C@H](CC(=O)O)c3ccc4c(nnn4C)c3C)ccc1C)CC(C)(C)O2` [Example 165, (S)-3-(1,4-Dimethyl-1H-benzo[d][1,2,3]triazol-5-yl)-3-(3-((7-methoxy-2,2-dimethyl-2,3-dihydrobenzo[f][1,4]oxazepin-4(5H)-yl)methyl)-4-methylphenyl)propanoic acid, 0.5 Formic Acid Salt], the EC50 (Homo sapiens, BEAS-2B, 48 h) was 1 to 10 nM.

With `CC[C@@H]1CN(Cc2cc([C@@H](c3ccc4c(nnn4C)c3C)C(C)(C)C(=O)O)ccc2C)Cc2c(ccnc2F)O1` [Example 222, (S)-3-(1,4-Dimethyl-1H-benzo[d][1,2,3]triazol-5-yl)-3-(3-(((R)-2-ethyl-6-fluoro-2,3-dihydropyrido[3,4-f][1,4]oxazepin-4(5H)-yl)methyl)-4-methylphenyl)-2,2-dimethylpropanoic Acid] the EC50 (Homo sapiens, BEAS-2B, 48 h) was < 1 nM.

With `Cc1c(C(CC(=O)O)c2ccc(Cl)c(CN3CCCC(n4cccn4)C3)c2)ccc2c1nnn2C` (centres unmarked) [Example 160, 3-(3-((3-(1H-Pyrazol-1-yl)piperidin-1-yl)methyl)-4-chlorophenyl)-3-(1,4-dimethyl-1H-benzo[d][1,2,3]triazol-5-yl)propanoic Acid, Formic Acid Salt] the EC50 (Homo sapiens, BEAS-2B, 48 h) was 1000 to 10000 nM.

Work on `Cc1ccc(C(CC(=O)O)c2ccc3c(nnn3C)c2C)cc1CN1CCOc2ccccc2C1` (centres unmarked) [Example 1, 3-(3-((2,3-Dihydrobenzo[f][1,4]oxazepin-4(5H)-yl)methyl)-4-methylphenyl)-3-(1,4-dimethyl-1H-benzo[d][1,2,3]triazol-5-yl)propanoic Acid, Trifluoroacetic Acid Salt] yielded an EC50 (Homo sapiens, BEAS-2B, 48 h) of 1000 to 10000 nM.

With `CC[C@@H]1CN(Cc2cc([C@H](c3ccc4c(nnn4CC)c3C)[C@H](C)C(=O)O)ccc2C)Cc2ccccc2O1` [Example 101, Ammonium (2S,3R)-3-(3-(((R)-2-ethyl-2,3-dihydrobenzo[f][1,4]oxazepin-4(5H)-yl)methyl)-4-methylphenyl)-3-(1-ethyl-4-methyl-1H-benzo[d][1,2,3]triazol-5-yl)-2-methylpropanate] the EC50 was < 1 nM.

Compound `CCn1nnc2c(C)c([C@@H](c3ccc(C)c(Cn4ccnc4CN4CCCCC4)c3)[C@H](C)C(=O)O)ccc21` [Example 201, (2S,3R)-3-(1-Ethyl-4-methyl-1H-benzo[d][1,2,3]triazol-5-yl)-2-methyl-3-(4-methyl-3-((2-(piperidin-1-ylmethyl)-1H-imidazol-1-yl)methyl)phenyl)propanoic Acid] has an EC50 (Homo sapiens, BEAS-2B, 48 h) of 100 to 1000 nM.

Compound `CC[C@@H]1CN(Cc2cc(C(c3ccc4c(nnn4C)c3C)C(C)(C)C(=O)O)ccc2C)Cc2ccccc2O1` (stereo partly drawn) [Example 114, 3-(1,4-Dimethyl-1H-benzo[d][1,2,3]triazol-5-yl)-3-(3-(((R)-2-ethyl-2,3-dihydrobenzo[f][1,4]oxazepin-4(5H)-yl)methyl)-4-methylphenyl)-2,2-dimethylpropanoic Acid, Lithium Salt] has an EC50 (Homo sapiens) of 100 to 1000 nM.

In the case of `CC[C@@H]1CN(Cc2cc([C@@H](CC(=O)O)c3ccc4c(nnn4C)c3C)ccc2C)Cc2ccccc2O1` [Example 51, (R)-3-(1,4-Dimethyl-1H-benzo[d][1,2,3]triazol-5-yl)-3-(3-(((R)-2-ethyl-2,3-dihdyrobenzo[f][1,4]oxazepin-4(5H)-yl)methyl)-4-methylphenyl)propanoic acid, formic acid salt], the EC50 (Homo sapiens, BEAS-2B, 48 h) is reported as 100 to 1000 nM.

With `CC[C@@H]1CN(Cc2cc([C@H](c3ccc4c(nnn4C)c3C)C(C)C(=O)O)ccc2C)Cc2cc(F)ccc2O1` (stereo partly drawn) [Example 42, (3R)-3-(1,4-Dimethyl-1H-benzo[d][1,2,3]triazol-5-yl)-3-(3-(((R)-2-ethyl-7-fluoro-2,3-dihydrobenzo[f][1,4]oxazepin-4(5H)-yl)methyl)-4-methylphenyl)-2-methylpropanoic Acid, Trifluoroacetic Acid Salt] the EC50 (Homo sapiens, BEAS-2B, 48 h) was 100 to 1000 nM.

`Cc1ccc([C@H](c2ccc3c(nnn3C)c2C)C(C)(C)C(=O)O)cc1Cc1cnnn1CC1CCCCCC1` (single isomer, unassigned) [Example 242] showed an EC50 (Homo sapiens, BEAS-2B, 48 h) of 10 to 100 nM.

Work on `CC[C@@H]1CN(Cc2cc(C(CC(=O)O)c3ncc4c(nnn4C)c3C)ccc2C)Cc2ccccc2O1` (stereo partly drawn) [Example 48, 3-(3,7-Dimethyl-3H-[1,2,3]triazolo[4,5-c]pyridin-6-yl)-3-(3-(((R)-2-ethyl-2,3-dihydrobenzo[f][1,4]oxazepin-4(5H)-yl)methyl)-4-methylphenyl)propanoic Acid, Trifluoroacetic Acid Salt] yielded an EC50 (Homo sapiens, BEAS-2B, 48 h) of 100 to 1000 nM.

With `Cc1ccc(C(CC(=O)O)c2ccc3c(nnn3C)c2C)cc1CN1CCCC1c1nnc(C(C)C)[nH]1` (centres unmarked) [Example 10, Ammonium 3-(1,4-dimethyl-1H-benzo[d][1,2,3]triazol-5-yl)-3-(3-((2-(5-isopropyl-4H-1,2,4-triazol-3-yl)pyrrolidin-1-yl)methyl)-4-methylphenyl)propanoate] the EC50 (Homo sapiens, BEAS-2B, 48 h) was 1000 to 10000 nM.

Compound `Cc1ccc(C(CC(=O)O)c2ccc3c(nnn3C)c2C)cc1Cn1ccnc1CC1CCCC1` (centres unmarked) [Example 148, 3-(3-((2-(Cyclopentylmethyl)-1H-imidazol-1-yl)methyl)-4-methylphenyl)-3-(1,4-dimethyl-1H-benzo[d][1,2,3]triazol-5-yl)propanoic acid] has an EC50 (Homo sapiens, BEAS-2B, 48 h) of 100 to 1000 nM.

For `CC[C@@H]1CN(Cc2cc([C@@H](c3ccc4c(nnn4C)c3C)C(C)(C)C(=O)O)ccc2C)Cc2cnc(Cl)cc2O1` [Example 29], the EC50 (Homo sapiens, BEAS-2B, 48 h) was < 1 nM.

`CC[C@@H]1CN(Cc2cc(C(c3ccc4c(nnn4C)c3C)C(C)(C)C(=O)O)ccc2C)Cc2cccnc2O1` (stereo partly drawn) [Example 113, 3-(1,4-Dimethyl-1H-benzo[d][1,2,3]triazol-5-yl)-3-(3-(((R)-2-ethyl-2,3-dihydropyrido[3,2-f][1,4]oxazepin-4(5H)-yl)methyl)-4-methylphenyl)-2,2-dimethylpropanoic Acid] showed an EC50 (Homo sapiens, BEAS-2B, 48 h) of 100 to 1000 nM.

For `COCC1CN(Cc2cc(C(CC(=O)O)c3ccc4c(nnn4C)c3C)ccc2C)Cc2ccccc2O1` (centres unmarked) [Example 74, 3-(1,4-Dimethyl-1H-benzo[d][1,2,3]triazol-5-yl)-3-(3-((2-(methoxymethyl)-2,3-dihydrobenzo[f][1,4]oxazepin-4(5H)-yl)methyl)-4-methylphenyl)propanoic acid, formic acid salt], the EC50 (Homo sapiens, BEAS-2B, 48 h) was 100 to 1000 nM.

`CC[C@@H]1CN(Cc2cc([C@@H](c3ccc4c(nnn4C)c3C)C(C)(C)C(=O)N3CCSC3=O)ccc2C)Cc2cnccc2O1` [Example 256, 3-((S)-3-(1,4-Dimethyl-1H-benzo[d][1,2,3]triazol-5-yl)-3-(3-(((R)-2-ethyl-2,3-dihydropyrido[3,4-f][1,4]oxazepin-4(5H)-yl)methyl)-4-methylphenyl)-2,2-dimethylpropanoyl)thiazolidin-2-one, Trifluoroacetic Acid Salt] gave an EC50 (Homo sapiens, BEAS-2B, 48 h) of 10 to 100 nM.

Work on `CC[C@@H]1CN(Cc2cc(C(CC(=O)O)c3ccc4c(nnn4C)c3C)ccc2C)Cc2cc(Cl)ccc2O1` (stereo partly drawn) [Example 77, Ammonium 3-(3-(((R)-7-Chloro-2-ethyl-2,3-dihydrobenzo[f][1,4]oxazepin-4(5H)-yl)methyl)-4-methylphenyl)-3-(1,4-dimethyl-1H-benzo[d][1,2,3]triazol-5-yl)propanate] yielded an EC50 (Homo sapiens, BEAS-2B, 48 h) of 1000 to 10000 nM.
